Literature values as cited in publication PMC11032351, “Epigenetic modulation through BET bromodomain inhibitors as a novel therapeutic strategy for progranulin-deficient frontotemporal dementia” (Scientific Reports, 2024).

Experiments:
recombinant BRD4 BD1 = target: recombinant BRD4 BD1; parameters: method as in PMID 31969702, PMID 32193360, doi:10.1002/anse.202200020; conditions: read-out: KD against recombinant BRD4 BD1; cited from earlier work
recombinant BRD4 BD2 = target: recombinant BRD4 BD2; parameters: method as in PMID 31969702, PMID 32193360, doi:10.1002/anse.202200020; conditions: read-out: KD against recombinant BRD4 BD2; cited from earlier work

CCS(=O)(=O)Nc1ccc(Oc2ccc(F)cc2F)c(-c2cn(C)c(=O)c3[nH]ccc23)c1 [mivebresib]
Kd (recombinant BRD4 BD1): ≤ 2.8 nM
Kd (recombinant BRD4 BD2): ≤ 2 nM
